From ChEMBL document CHEMBL1781948, “Cytotoxic veraguamides, alkynyl bromide-containing cyclic depsipeptides from the marine cyanobacterium cf. Oscillatoria margaritifera” (2011)
Calls of active or inactive are those of the source. The rule behind the calls is not given here. Where a SMILES comes first, the peptide text is derived from it. [ ]: non-standard residue; d: D form. The star is where a group is joined. Hmpa(2S,3S) = CC[C@H](C)[C@H](O)C(=O)O; X1 = C[C@H](C(=O)*)[C@H](O)CCCC#CBr; NMeV = CN[C@H](C(=O)O)C(C)C; Hiv = CC(C)[C@H](O)C(=O)O

Test system: NCI-H460
Experiment: Cytotoxicity against human H460 cells after 48 hrs by MTT assay
Assay type: functional

| Structure (SMILES) | LD50 | CC50 (NCI-H460, 48 h, read-out: LD50 (the source's name)) [µM] |
| --- | --- | --- |
| C#CCCC[C@H]1OC(=O)[C@H](C(C)C)N(C)C(=O)[C@@H]2CCCN2C(=O)[C@H]([C@@H](C)CC)OC(=O)[C@H](C(C)C)N(C)C(=O)[C@H](C(C)C)NC(=O)[C@H]1C | Active | – |
| CC(C)[C@@H]1NC(=O)[C@@H](C)[C@@H](CCCC#CBr)OC(=O)[C@H](C(C)C)N(C)C(=O)[C@@H]2CCCN2C(=O)[C@H](C(C)C)OC(=O)[C@H](C(C)C)N(C)C1=O | Active | – |
| CCOC(=O)[C@H](C(C)C)N(C)C(=O)[C@@H]1CCCN1C(=O)[C@@H](OC(=O)[C@H](C(C)C)N(C)C(=O)[C@@H](NC(=O)[C@@H](C)[C@H](O)CCCC#CBr)C(C)C)C(C)C (X1-V[NMeV][Hiv]P[NMeV]-OEt) | Active | – |
| CCOC(=O)[C@H](C(C)C)N(C)C(=O)[C@@H]1CCCN1C(=O)[C@@H](OC(=O)[C@H](C(C)C)N(C)C(=O)[C@@H](NC(=O)[C@@H](C)[C@H](O)CCCC#CBr)C(C)C)[C@@H](C)CC (X1-V[NMeV][Hmpa(2S,3S)]P[NMeV]-OEt) | Active | – |
| CC[C@H](C)[C@@H]1OC(=O)[C@H](C(C)C)N(C)C(=O)[C@H](C(C)C)NC(=O)[C@@H](C)[C@@H](CCCC#CBr)OC(=O)[C@H](C(C)C)N(C)C(=O)[C@@H]2CCCN2C1=O [VERAGUAMIDE A] | – | 0.141 |
